Test results reported in patent publication US20150315188A1, “COMPOUNDS AND METHODS FOR TREATMENT OF HYPERTENSION” (MEDIVATION TECHNOLOGIES, INC., priority 2012, published 2015).

Key:
Parameters in all cases: purchased Milipore (Millipore)
[1] = biological target: T1, Human adrenergic α2B receptor (Homo sapiens, UniProt P18089); assay: Radioligand binding, adrenergic α2B (Protocol Group B); conditions: Protocol Group B; for Percentage inhibition of ligand binding, Adrenergic α2B (10 nM): 10 nM compound, 0.01 µM; for Percentage inhibition of ligand binding, Adrenergic α2B (30 nM): 30 nM compound, 0.03 µM; for Percentage inhibition of ligand binding, Adrenergic α2B (0.1 μM): 0.1 μM compound
T1 sequence (P18089 1-450): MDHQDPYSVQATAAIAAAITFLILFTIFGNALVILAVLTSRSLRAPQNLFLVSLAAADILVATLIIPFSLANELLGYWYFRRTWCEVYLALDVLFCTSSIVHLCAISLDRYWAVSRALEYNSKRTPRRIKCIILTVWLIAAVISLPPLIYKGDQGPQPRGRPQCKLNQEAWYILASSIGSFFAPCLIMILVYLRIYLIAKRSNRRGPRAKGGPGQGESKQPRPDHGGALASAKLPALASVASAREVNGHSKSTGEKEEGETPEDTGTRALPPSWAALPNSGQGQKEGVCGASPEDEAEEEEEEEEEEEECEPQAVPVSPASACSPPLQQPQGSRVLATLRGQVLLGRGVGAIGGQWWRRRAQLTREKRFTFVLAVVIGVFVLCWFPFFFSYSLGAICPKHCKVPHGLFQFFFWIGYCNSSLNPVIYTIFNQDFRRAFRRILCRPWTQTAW
Summary of the method: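 Recombinant human α2B receptor membranes incubated with compounds in 50 mM Tris-HCl pH 7.4, 5 mM MgCl2, 1 mM CaCl2, 0.2% BSA, 1% DMSO vehicle. Non-specific binding defined with 10 μM rauwolscine. Values are percent inhibition of specific binding or estimated Ki.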

[2] = biological target: T2, Human adrenergic α2A receptor (Homo sapiens, UniProt P08913); assay: Radioligand binding, adrenergic α2A (Protocol Group B); conditions: Protocol Group B; for Percentage inhibition of ligand binding, Adrenergic α2A (0.1 μM): 0.1 μM compound; for Percentage inhibition of ligand binding, Adrenergic α2A (0.3 μM): 0.3 μM compound
T2 sequence (P08913 1-465): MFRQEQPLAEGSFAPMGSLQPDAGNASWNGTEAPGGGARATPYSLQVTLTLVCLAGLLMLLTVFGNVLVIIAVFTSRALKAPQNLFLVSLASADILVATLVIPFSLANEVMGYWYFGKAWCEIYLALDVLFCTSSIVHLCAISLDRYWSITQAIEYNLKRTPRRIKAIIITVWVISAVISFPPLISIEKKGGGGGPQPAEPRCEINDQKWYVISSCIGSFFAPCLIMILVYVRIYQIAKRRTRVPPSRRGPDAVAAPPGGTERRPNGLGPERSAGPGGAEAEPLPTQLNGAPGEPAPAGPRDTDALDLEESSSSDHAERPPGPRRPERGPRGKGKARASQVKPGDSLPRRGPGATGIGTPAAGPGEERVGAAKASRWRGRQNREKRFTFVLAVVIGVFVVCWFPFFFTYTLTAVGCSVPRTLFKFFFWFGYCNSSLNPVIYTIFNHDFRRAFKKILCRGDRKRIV
Summary of the method: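 Membranes from recombinant cells expressing the receptor, in 50 mM Tris-HCl pH 7.4 with 5 mM MgCl2, 1 mM CaCl2, 0.2% BSA; compounds incubated with 2 nM [^3H]MK-912 for 60 min at 25° C. Nonspecific binding defined by 10 μM rauwolscine; filtration, counting; percent inhibition of specific binding, or estimated Ki.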

[3] = biological target: T3, Human adrenergic α1B receptor (Homo sapiens, UniProt P35368); assay: Radioligand binding, adrenergic α1B (Protocol Group B); conditions: Protocol Group B; for Percentage inhibition of ligand binding, Adrenergic α1B (0.1 μM): 0.1 μM compound; for Percentage inhibition of ligand binding, Adrenergic α1B (0.3 μM): 0.3 μM compound
T3 sequence (P35368 1-520): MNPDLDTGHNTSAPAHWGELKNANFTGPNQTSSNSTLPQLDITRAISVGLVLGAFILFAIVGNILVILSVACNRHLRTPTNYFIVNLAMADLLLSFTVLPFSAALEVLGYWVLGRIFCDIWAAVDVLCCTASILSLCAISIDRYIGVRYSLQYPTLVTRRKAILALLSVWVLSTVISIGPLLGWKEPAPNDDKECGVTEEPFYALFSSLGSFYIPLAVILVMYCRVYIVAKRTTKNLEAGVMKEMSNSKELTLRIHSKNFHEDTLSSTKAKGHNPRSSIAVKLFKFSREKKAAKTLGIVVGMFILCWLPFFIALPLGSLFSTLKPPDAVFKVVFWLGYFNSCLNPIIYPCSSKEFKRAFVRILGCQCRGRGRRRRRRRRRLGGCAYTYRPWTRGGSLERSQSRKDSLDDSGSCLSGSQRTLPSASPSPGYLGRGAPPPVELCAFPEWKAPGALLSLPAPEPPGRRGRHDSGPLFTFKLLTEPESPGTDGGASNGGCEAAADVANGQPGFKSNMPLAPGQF
Summary of the method: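 Recombinant human α1B membranes incubated with test compound and 0.3 nM [3H]prazosin, 60 min at 25 °C, in 50 mM Tris-HCl pH 7.4, 10 mM MgCl2, 1 mM EDTA; nonspecific binding with 10 μM prazosin. Filter-bound radioactivity counted; values are % inhibition of specific binding or estimated Ki.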

| SMILES | Percentage inhibition of ligand binding, Adrenergic α2B (10 nM) [1] | Percentage inhibition of ligand binding, Adrenergic α2B (30 nM) [1] | Percentage inhibition of ligand binding, Adrenergic α2B (0.1 μM) [1] | Percentage inhibition of ligand binding, Adrenergic α2A (0.1 μM) [2] | Percentage inhibition of ligand binding, Adrenergic α2A (0.3 μM) [2] | Percentage inhibition of ligand binding, Adrenergic α1B (0.1 μM) [3] | Percentage inhibition of ligand binding, Adrenergic α1B (0.3 μM) [3] |
| --- | --- | --- | --- | --- | --- | --- | --- |
| Cc1ccc2c(c1)c1c(n2CC(O)c2ccccn2)CC2CCCN2C1 (single isomer, unassigned) [45a] | −4% | 16% | 43% | −1% | 12% | 12% | 35% |
| Cc1ccc2c(c1)c1c(n2CC(O)c2ccccn2)CC2CCCN2C1 (single isomer, unassigned) [45b] | 4% | 7% | 23% | −3% | 9% | 18% | 52% |
| Cc1ccc2c(c1)c1c(n2CC(O)c2ccccn2)CC2CCCN2C1 (single isomer, unassigned) [45c] | 11% | 4% | 19% | 0% | −11% | −5% | 3% |
| Cc1ccc2c(c1)c1c(n2CC(O)c2ccccn2)CC2CCCN2C1 (single isomer, unassigned) [45d] | −10% | 0% | 34% | −7% | −2% | 4% | 18% |
| Cc1ccc2c(c1)c1c(n2CC(C)(O)c2cncc(F)c2)CCN(C)C1 (single isomer, unassigned) [46a] | 33% | 60% | 82% | 20% | 35% | 6% | 27% |
| Cc1ccc2c(c1)c1c(n2CC(C)(O)c2cncc(F)c2)CCN(C)C1 (single isomer, unassigned) [46b] | 0% | 15% | 37% | −1% | 3% | 0% | 10% |
